# Reference: ChEMBL document CHEMBL3407370, “Potent acetylcholinesterase inhibitors: design, synthesis, biological evaluation, and docking study of acridone linked to 1,2,3-triazole derivatives” (Eur J Med Chem, 2015)
# Experiments:
# Acetylcholinesterase = Acetylcholinesterase (Electrophorus electricus, UniProt O42275); experiment: Inhibition of electric eel acetylcholinesterase using acetylthiocholine iodide as substrate after 15 mins by Ellman's method
# Cholinesterase = Cholinesterase (Equus caballus, UniProt P81908); experiment: Inhibition of equine serum butylcholinesterase using acetylthiocholine iodide as substrate after 15 mins by Ellman's method
# Chain of Cholinesterase (P81908 whole entry): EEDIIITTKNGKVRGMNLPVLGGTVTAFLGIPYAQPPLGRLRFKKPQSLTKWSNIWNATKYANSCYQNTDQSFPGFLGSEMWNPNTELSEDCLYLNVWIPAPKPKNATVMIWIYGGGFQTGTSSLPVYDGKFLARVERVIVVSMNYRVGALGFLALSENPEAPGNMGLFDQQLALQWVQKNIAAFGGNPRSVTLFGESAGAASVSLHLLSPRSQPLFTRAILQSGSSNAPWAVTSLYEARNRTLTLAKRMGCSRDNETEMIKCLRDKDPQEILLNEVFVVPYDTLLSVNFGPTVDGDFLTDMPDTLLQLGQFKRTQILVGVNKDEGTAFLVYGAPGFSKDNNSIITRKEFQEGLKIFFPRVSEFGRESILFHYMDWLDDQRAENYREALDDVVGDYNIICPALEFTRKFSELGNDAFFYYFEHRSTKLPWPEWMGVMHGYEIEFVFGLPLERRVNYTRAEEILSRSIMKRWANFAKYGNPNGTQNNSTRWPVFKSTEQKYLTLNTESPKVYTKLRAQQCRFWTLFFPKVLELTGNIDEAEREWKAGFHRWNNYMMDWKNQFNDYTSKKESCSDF
# [1] = Antioxidant activity assessed as DPPH radical scavenging activity at 700 ug/ml incubated in dark condition measured after 30 mins by UV/vis spectrophotometric analysis relative to control; type: physicochemical; conditions: 0.5 h
# [2] = Antioxidant activity assessed as DPPH radical scavenging activity incubated in dark condition measured after 30 mins by UV/vis spectrophotometric analysis; type: physicochemical
# Chain of Acetylcholinesterase (O42275 whole entry): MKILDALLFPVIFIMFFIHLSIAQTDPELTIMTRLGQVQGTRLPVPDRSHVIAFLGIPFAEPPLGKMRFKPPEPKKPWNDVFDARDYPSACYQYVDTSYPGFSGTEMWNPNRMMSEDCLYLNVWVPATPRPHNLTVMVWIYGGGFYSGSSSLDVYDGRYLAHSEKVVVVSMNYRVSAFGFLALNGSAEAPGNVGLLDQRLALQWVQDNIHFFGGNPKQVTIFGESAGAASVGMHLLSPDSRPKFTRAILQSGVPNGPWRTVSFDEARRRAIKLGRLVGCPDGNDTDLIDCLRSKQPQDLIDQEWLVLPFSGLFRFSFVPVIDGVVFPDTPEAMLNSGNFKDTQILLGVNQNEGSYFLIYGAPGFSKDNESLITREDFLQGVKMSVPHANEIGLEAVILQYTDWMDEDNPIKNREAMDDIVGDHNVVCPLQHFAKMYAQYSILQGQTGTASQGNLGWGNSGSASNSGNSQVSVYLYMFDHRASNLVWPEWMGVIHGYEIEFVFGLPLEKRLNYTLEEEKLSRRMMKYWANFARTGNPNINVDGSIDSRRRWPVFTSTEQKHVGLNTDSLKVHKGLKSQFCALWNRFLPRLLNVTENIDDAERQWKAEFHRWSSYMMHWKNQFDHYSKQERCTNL
structure (smiles),measurement,setting,value
O=c1c2ccccc2n(Cc2cn(Cc3ccccc3)nn2)c2ccccc12,IC50,Acetylcholinesterase,≥ 100 µM
same,IC50,Cholinesterase,≥ 100 µM
O=c1c2ccccc2n(Cc2cn(Cc3ccc(Cl)cc3)nn2)c2ccccc12,IC50,Acetylcholinesterase,59.7 µM
same,IC50,Cholinesterase,≥ 100 µM
same,inhibition (INH),[1],21.78%
same,EC50,[2],> 333 µg/mL
O=c1c2ccccc2n(Cc2cn(Cc3ccccc3)nn2)c2ccc(Cl)cc12,IC50,Acetylcholinesterase,88.1 µM
same,IC50,Cholinesterase,≥ 100 µM
same,inhibition (INH),[1],26.6%
same,EC50,[2],> 700 µg/mL
O=c1c2ccccc2n(Cc2cn(Cc3ccc(Cl)cc3)nn2)c2ccc(Cl)cc12,IC50,Acetylcholinesterase,17.7 µM
same,IC50,Cholinesterase,≥ 100 µM
O=c1c2ccccc2n(Cc2cn(Cc3ccc([N+](=O)[O-])cc3)nn2)c2ccc(Cl)cc12,IC50,Acetylcholinesterase,38.3 µM
same,IC50,Cholinesterase,≥ 100 µM
COc1ccc2c(c1)c(=O)c1ccccc1n2Cc1cn(Cc2ccccc2)nn1,IC50,Acetylcholinesterase,24 µM
same,IC50,Cholinesterase,≥ 100 µM
same,inhibition (INH),[1],8.65%
same,EC50,[2],> 700 µg/mL
COc1ccc2c(c1)c(=O)c1ccccc1n2Cc1cn(Cc2ccc(Cl)cc2)nn1,IC50,Acetylcholinesterase,7.31 µM
same,IC50,Cholinesterase,≥ 100 µM
O=c1c2ccccc2n(Cc2cn(Cc3ccccc3)nn2)c2ccc(Br)cc12,IC50,Acetylcholinesterase,68.1 µM
same,IC50,Cholinesterase,≥ 100 µM
O=c1c2ccccc2n(Cc2cn(Cc3ccc(Cl)cc3)nn2)c2ccc(Br)cc12,IC50,Acetylcholinesterase,45.6 µM
same,IC50,Cholinesterase,≥ 100 µM
O=c1c2ccccc2n(Cc2cn(Cc3ccc([N+](=O)[O-])cc3)nn2)c2ccc(Br)cc12,IC50,Acetylcholinesterase,52.8 µM
same,IC50,Cholinesterase,≥ 100 µM
Cc1ccc2c(c1)c(=O)c1ccccc1n2Cc1cn(Cc2ccccc2)nn1,IC50,Acetylcholinesterase,≥ 100 µM
same,IC50,Cholinesterase,≥ 100 µM
same,inhibition (INH),[1],7.09%
same,EC50,[2],> 333 µg/mL
Cc1ccc2c(c1)c(=O)c1ccccc1n2Cc1cn(Cc2ccc(Cl)cc2)nn1,IC50,Acetylcholinesterase,10.8 µM
same,IC50,Cholinesterase,87.2 µM
O=c1c2ccccc2n(Cc2cn(Cc3ccccc3)nn2)c2c(F)cccc12,IC50,Acetylcholinesterase,≥ 100 µM
same,IC50,Cholinesterase,≥ 100 µM
same,inhibition (INH),[1],14.79%
same,EC50,[2],> 700 µg/mL
O=c1c2ccccc2n(Cc2cn(Cc3ccc(Cl)cc3)nn2)c2c(F)cccc12,IC50,Acetylcholinesterase,24.5 µM
same,IC50,Cholinesterase,≥ 100 µM
